# Measurements taken from patent US20260234208A1, “METHOD FOR PRODUCING A KERATIN POWDER FROM FEATHERS OF ANIMAL ORIGIN, COLLOIDAL SOLUTION AND KERATIN POWDER FOR TOPICAL APPLICATION CONTAINING KERATIN PARTICLES, AND USE OF THE COLLOIDAL SOLUTION AND THE KERATIN POWDER” (RIGI THERAPEUTICS AG, priority 2023, published 2026).
# Test: Water release in climate chamber
# Assay type: physicochemical
# Settings: room temperature, humidity 50%
# Experimental: When urea was added, up to a ratio of 5% keratin to 95% urea, the maximum was reached increasingly later, in the maximum case only after 15 days. In this case, the water absorption capacity was 197%. (FIG. 13). The water release was determined at room temperature and a humidity of 50%. […] For the mixtures of keratin and urea in the ratios 25:75 and 10:[…], a water content of 25% was still observed even after 4 days (FIG. 14).
smiles,measurement,value
NC(N)=O [urea],Time to complete water release,4 days
same,Water release within the first 24 hours,around 170%
